Measurements: patent US8716266B2, “Use of PKC-iota inhibitors for the treatment of glioma” (University of South Florida, priority 2011, dated 2014)

What was measured:
[1] = Body weight and survival of xenografted mice under ICA-1 treatment
Experimental: Briefly, nine female athymic nude mice, weighing 17 to 23 grams, were divided into 3 groups: Group 1, mice received human glioblastoma xenografts and were treated with saline controls (n=3); Group 2, mice received human glioblastoma xenografts and were treated with ICA-1 (80 mg/kg/day; 20 μM) immediately after glioma implantation (n=3); Group 3, mice received human glioblastoma xenografts and were treated with ICA-1 (80 mg/kg/day, 20 μM) when the tumor reached 100 mm^3 on day 5 post implantation (n=3).
Human glioblastoma cell line U-87 MG, a commonly-studied human grade IV glioblastoma-astrocytoma, epithelial-like cell line, was injected subcutaneously into right flank (1×10^6 cells/flank in 0.1 ml PBS) of the mice. The cell injection site was marked. After glioblastoma implantation, ICA-1 (80 mg/kg/day; 20 μM) was subcutaneously injected, daily, into and around the tumor/cell injection area of Groups 2 and 3 mice; Group 1 mice was treated with vehicle. Tumor volume was calculated using the following formula: length×width×width×½.

[2] = tested on: Human glioblastoma cell line U-87 MG; assay: Human glioblastoma U-87 MG subcutaneous xenograft in athymic nude mice, tumor volume; type: in vivo, female athymic nude mice
From the text: The cell injection site was marked.

[3] = Group 2: ICA-1 80 mg/kg/day daily from implantation

NC(=O)c1ncn(C2CC(COP(=O)(O)O)C(O)C2O)c1N (stereo not drawn) [ICA-1, 1H-imidazole-4-carboxamide, 5-amino-1-[2,3-dihydroxy-4-[(phosphonooxy)methyl]cyclopentyl]-[1R-(1α, 2β, 3β, 4α)]]
body weight [1, 3]: lost significant weight | survival / lethality [1, 3]: died seven days post ICA-1 treatment | body weight ([1]; Group 3: ICA-1 80 mg/kg/day for 4 days (day 5-day 9 post implantation)): did not exhibit significant weight loss | tumor growth ([2]; Group 2: ICA-1 80 mg/kg/day (20 μM) s.c. daily into and around tumor area, started immediately after glioma implantation): prevented tumor growth | tumor growth ([2]; Group 3: ICA-1 80 mg/kg/day (20 μM) s.c. daily, started when tumor reached 100 mm^3 on day 5 post implantation): prevented tumor growth | glioma volume ([2]; Group 3: ICA-1 80 mg/kg/day, 4 days of treatment (day 5-day 9 post implantation)): reduced glioma volume | glioma size after the ICA-1 treatment was terminated ([2]; Group 3: after termination of treatment on day 9 post implantation): continued to reduce | glioma size relative to that of the control mice ([2]; Group 3: end of study period, 8 days after termination of ICA-1 treatment (80 mg/kg/day, day 5-day 9)): 53%
